Results published in ChEMBL document CHEMBL1152564, “Antagonists of the human A(2A) receptor. Part 6: Further optimization of pyrimidine-4-carboxamides” (Bioorg Med Chem, 2009).

How the values were obtained:
Assay type in all cases: ADME, organism-based
[1] = Volume of distribution in rat; conditions: in vivo
[2] = Oral bioavailability in rat; conditions: in vivo
[3] = Terminal half life in rat; conditions: in vivo, read-out: beta t1/2 (converted)
[4] = Tmax in rat plasma
[5] = Clearance in rat; conditions: in vivo

- Vd [1]: 0.7 L/kg
- bioavailability [2]: 3%
- half-life [3]: 3 h
- Tmax [4]: 0.25 h
- clearance [5]: 32.5 mL/min/kg
SMILES: Cc1cccc(CNC(=O)c2cc(-c3ccc(C)o3)nc(N)n2)n1
